Test results published in patent US20240300945A1, “CLY SERIES COMPOUND, PREPARATION METHOD THEREFOR AND USE THEREOF IN PREPARATION OF DRUGS” (NANJING WELLBEST PHARMACEUTICAL CO., LTD, priority 2021, published 2024).

Experiments:
[1] = Pharmacokinetic properties of rats (bioavailability); assay type: in vivo; settings: rat, po; male SD rats; intravenous 1 mg/kg, intragastric 5 mg/kg; plasma LC/MS/MS
Method: Male SD rats were randomly assigned to each group, 12 rats in each compound group, and then randomly divided into two groups. Six rats were administered intravenously (1 mg/kg), and blood was collected and plasma was separated respectively at 0.0833, 0.25, 0.5, 1, 2, 4, 6, 8, and 24 hours after administration. The other six rats were administered intragastrically (5 mg/kg), and blood was collected and plasma was separated respectively at 0.25, 0.5, 1, 2, 4, 6, 8, and 24 hours after administration. The concentration of each compound in plasma was determined by LC/MS/MS method, and the relevant pharmacokinetic parameters were calculated by using the software Phoenix WinNonlin 6.2.1, the bioavailability in rats was calculated, and the pharmacokinetic properties of each compound were evaluated.

[2] = tested on: rabbit ear acne model; test: Rabbit ear acne model: macroscopic observation and histological grading; assay type: in vivo, New Zealand rabbits; settings: right ear, 10 per group; for number of rabbits with acne histological grading 2+: Grade 2; for number of rabbits with acne histological grading —: Level 0, without acne; for number of rabbits with acne histological grading 1+: Level 1; for number of rabbits with acne histological grading 3+: Level 3
From the text: (1) Preparation method of treatment cream: The excipient matrix components included methyl silicone oil (15%), stearic acid (6%), white vaseline (5%), liquid paraffin (5%), octadecanol (5%), glycerin (20%), alkyl aryl polyglycol ether (1%), fatty alcohol polyoxyethylene ether (1%), […] (1%), ethyl paraben (0.1%), distilled water (about 31-55%), and mixed with appropriate amount of CLY series compounds to form a mixed emulsion. The emulsion matrix used in this embodiment refers to the matrix component after the active ingredient was removed from the emulsion.
(2) Positive therapeutic drug: 0.1% adapalene gel (Trade name: Differin, produced by Laboratoires Galderma, France).
New Zealand rabbits were, according to weights, randomly divided into the model control group (applied cream matrix), positive treatment group (applied Differin on the skin), CLY-1 external treatment group (0.25% CLY-1 cream on the skin), CLY-2 external treatment group (0.25% CLY-2 cream on the skin), CLY-3 external treatment group (0.25% CLY-3 cream on the skin), CLY-4 external treatment group (0.25% CLY-4 cream on the skin) CLY-8 external treatment group (0.25% CLY-8 cream on the skin), CLY-9 external treatment group (0.25% CLY-9 cream on the skin), CLY-11 external treatment group (0.25% CLY-11 cream on the skin), CLY-19 external treatment group (0.25% CLY-19 cream on the skin), CLY-36 external treatment group (0.25% CLY-36 cream on the skin); CLY-1 intravenous injection group (1 mg/kg·d), CLY-2 intravenous injection group (1 mg/kg·d), CLY-3 intravenous injection group (1 mg/kg·d), CLY-4 intravenous injection group (1 mg/kg·d), CLY-8 intravenous injection group (1 mg/kg·d), CLY-9 intravenous injection group (1 mg/kg·d), CLY-11 intravenous injection group (1 mg/kg·d), CLY-19 intravenous injection group (1 mg/kg·d), and CLY-36 intravenous injection group (1 mg/kg·d), with 10 in each group. Took the inner side of the rabbit's right ear for depilation treatment as the observation area, and the inner side of the left ear of all rabbits as their own negative control, and applied 95% alcohol. The inner side of the right ear of the model group and the treatment group were both coated with 2% coal tar (Alfa Aesar China, which used 95% alcohol to prepare 2% coal tar solution), and evenly applied the sterile cotton swab to the opening of the ear duct on the inner side of the rabbit's ear within the range of about 2 cm×2 cm, once a day, 0.5 mL each time, and wiped the previous application site with warm water for 14 consecutive days to establish the acne micro-pigmentation model. Visually observed the changes of local skin, including ear thickness, hardness, roughness, and whether there was a black angle plug at the hair follicle mouth. 18 hours after the last application, the sample was sacrificed and skin was taken. The skin tissue was taken from the application site by using a 5 mm punch, fixed with 10% formaldehyde, embedded in paraffin, and stained with HE. The histopathological observation and analysis were carried out.
The histological grading criteria of the acne model: 3 grades according to histological grade. […] The tight keratin embolism in the hair follicles causes severe expansion of the hair follicles, obvious hyperplasia of the sebaceous duct epithelium, skin bulges and scars, and some sebaceous glands degenerate “3±”.
SPSS16 software was used for statistical analysis. The paired t-test was used for the left and right self-contrast, and the t-test was used for the comparison between the groups, P<0.05 was statistically significant.

[3] = tested on: rat scar model; test: Rat scar model (skin wound healing); assay type: in vivo; settings: rat back wound 2.4 cm; 0.5% cream on the skin
From the text: 1.1 Preparation method of treatment cream: The excipient matrix components included methyl silicone oil (15%), stearic acid (6%), white vaseline (5%), liquid paraffin (5%), octadecanol (5%), glycerin (20%), alkylaryl polyglycol ether (1%), fatty alcohol polyoxyethylene ether (1%), […] (1%), ethyl paraben (0.1%), distilled water (about 31-55%), and mixed with appropriate amount of CLY series compounds to form a mixed emulsion. The emulsion matrix used in this embodiment refers to the matrix component after the active ingredient was removed from the emulsion.
1.2 Grouping and modeling of experimental animals: SPF grade male rats, weighing (210±28) g, from the Animal Center of Nanyi University. The rats were numbered according to their body weight and using the random array method, samples were divided into the model control group (applied cream matrix), CLY-1 treatment group (applied 0.5% CLY-1 cream on the skin), CLY-2 treatment group (applied 0.5% CLY-2 cream on the skin), CLY-3 treatment group (0.5% CLY-3 cream on the skin), CLY-4 treatment group (0.5% CLY-4 cream on the skin), CLY-8 treatment group (0.5% CLY-8 cream on the skin), CLY-11 treatment group (0.5% CLY-11 cream on the skin) CLY-19 treatment group (0.5% CLY-19 cream on the skin), CLY-36 treatment group (0.5% CLY-36 cream on the skin), and CLY-39 treatment group (0.5% CLY-39 cream on the skin), 6 in each group. Rats in each group were anesthetized by intraperitoneal injection of 2% pentobarbital sodium (120 mg/kg) and fixed on the operating table, and then chose a piece of 4×5 cm of intact skin on the back, 8% sodium sulfide hair removal, used tissue scissors to cut a wound with a diameter of 2.4 cm and a depth of muscle fascia at the hair removal site, and damage part of the muscle surface fascia. Animals were kept in separate cages to prevent rats from biting and licking. Applied 2% iodine tincture daily to the wound for routine disinfection, and observed the wound healing of rats.
The wounds were routinely disinfected every day, and the wounds of rats were observed on the 1st, 3rd, 5th, 7th, 12th, and 20th days. […] On the 12th day, the wounds in each treatment group had basically recovered, while the model group still had about 0.5 cm2 of wounds. By the 20th day, the wounds in each group had recovered, and the model control group left obvious scars, while each treatment group only left different amounts of pigmentation.

[4] = external use (0.25% CLY cream; positive: Differin)
[5] = intravenous injection 1 mg/kg·d

With `CCN1CCC[C@@H](N(C(=O)c2ccc(-n3nnc4cccnc43)cc2)c2ncccc2Cl)C1` [CLY-2, (R)-4-(3H-[1,2,3]triazolo[4,5-b]pyridin-3-yl)-N-(3-chloropyridin-2-yl)-N-(1-ethylpiperidin-3-yl)benzamide] the bioavailability [1] was 72.6%, the “number of rabbits with acne histological grading 2+” value [2, 4] was 2 and the “number of rabbits with acne histological grading 2+” value [2, 5] was 1. For the same compound, the “number of rabbits with acne histological grading —” value [2, 4] was 6, the “number of rabbits with acne histological grading —” value [2, 5] was 8 and the “number of rabbits with acne histological grading 1+” value [2, 4] was 2. For the same compound, the “number of rabbits with acne histological grading 1+” value [2, 5] was 1, the “number of rabbits with acne histological grading 3+” value [2, 4] was 0 and the “number of rabbits with acne histological grading 3+” value [2, 5] was 0. For the same compound, the “skin wound healing and scar formation” value [3] was “significantly promote skin wound healing and reduce scar formation”.

With `CN1CCC[C@@H](N(C(=O)c2ccc(-n3nnc4cccnc43)cc2)c2ncccc2Cl)C1` [CLY-1, (R)-4-(3H-[1,2,3]triazolo[4,5-b]pyridin-3-yl)-N-(3-chloropyridin-2-yl)-N-(1-methylpiperidin-3-yl)benzamide] the bioavailability [1] was 69.8%, the “number of rabbits with acne histological grading 2+” value [2, 4] was 2 and the “number of rabbits with acne histological grading 2+” value [2, 5] was 1. The “number of rabbits with acne histological grading —” value [2, 4] was 5, the “number of rabbits with acne histological grading —” value [2, 5] was 7 and the “number of rabbits with acne histological grading 1+” value [2, 4] was 3. The “number of rabbits with acne histological grading 1+” value [2, 5] was 2, the “number of rabbits with acne histological grading 3+” value [2, 4] was 0 and the “number of rabbits with acne histological grading 3+” value [2, 5] was 0. For the same compound, the “skin wound healing and scar formation” value [3] was “significantly promote skin wound healing and reduce scar formation”.

For `Nc1ccccc1-c1ccc(C(=O)N(c2ncccc2Cl)[C@@H]2CCCNC2)cc1` [CLY-39], the bioavailability [1] was 65.6%, the “number of rabbits with acne histological grading 2+” value [2, 4] was 1 and the “number of rabbits with acne histological grading 2+” value [2, 5] was 1. The “number of rabbits with acne histological grading —” value [2, 4] was 6, the “number of rabbits with acne histological grading —” value [2, 5] was 7 and the “number of rabbits with acne histological grading 1+” value [2, 4] was 3. For the same compound, the “number of rabbits with acne histological grading 1+” value [2, 5] was 2, the “number of rabbits with acne histological grading 3+” value [2, 4] was 0 and the “number of rabbits with acne histological grading 3+” value [2, 5] was 0. For the same compound, the “skin wound healing and scar formation” value [3] was “significantly promote skin wound healing and reduce scar formation”.

`COC1CCCC(N(C(=O)c2ccc(-n3nnc4cccnc43)cc2)c2ncccc2Cl)C1` (stereo not shown) [CLY-5] showed a bioavailability [1] of 53.8%.

In the case of `CNC1CCCC(N(C(=O)c2ccc(-n3nnc4cccnc43)cc2)c2ncccc2Cl)C1` (stereo not shown) [CLY-3], the bioavailability [1] is reported as 69.5%, the “number of rabbits with acne histological grading 2+” value [2, 4] is reported as 2 and the “number of rabbits with acne histological grading 2+” value [2, 5] is reported as 2. The “number of rabbits with acne histological grading —” value [2, 4] was 4, the “number of rabbits with acne histological grading —” value [2, 5] was 6 and the “number of rabbits with acne histological grading 1+” value [2, 4] was 4. For the same compound, the “number of rabbits with acne histological grading 1+” value [2, 5] was 2, the “number of rabbits with acne histological grading 3+” value [2, 4] was 0 and the “number of rabbits with acne histological grading 3+” value [2, 5] was 0. The “skin wound healing and scar formation” value [3] was “significantly promote skin wound healing and reduce scar formation”.

With `O=C(c1ccc(-n2nnc3cccnc32)cc1)N(c1ncccc1Cl)[C@@H]1CCNC1` [CLY-8, (R)-4-(3H-[1,2,3]triazolo[4,5-b]pyridin-3-yl)-N-(3-chloropyridin-2-yl)-N-(pyrrolidin-3-yl)benzamide] the bioavailability [1] was 78.2%, the “number of rabbits with acne histological grading 2+” value [2, 4] was 1 and the “number of rabbits with acne histological grading 2+” value [2, 5] was 0. The “number of rabbits with acne histological grading —” value [2, 4] was 8, the “number of rabbits with acne histological grading —” value [2, 5] was 9 and the “number of rabbits with acne histological grading 1+” value [2, 4] was 1. For the same compound, the “number of rabbits with acne histological grading 1+” value [2, 5] was 1, the “number of rabbits with acne histological grading 3+” value [2, 4] was 0 and the “number of rabbits with acne histological grading 3+” value [2, 5] was 0. The “skin wound healing and scar formation” value [3] was “significantly promote skin wound healing and reduce scar formation”.

With `NC1CCCC(N(C(=O)c2ccc(-n3nnc4cccnc43)cc2)c2ncccc2Cl)C1` (stereo not shown) [CLY-11] the bioavailability [1] was 63.5%, the “number of rabbits with acne histological grading 2+” value [2, 4] was 2 and the “number of rabbits with acne histological grading 2+” value [2, 5] was 1. For the same compound, the “number of rabbits with acne histological grading —” value [2, 4] was 5, the “number of rabbits with acne histological grading —” value [2, 5] was 7 and the “number of rabbits with acne histological grading 1+” value [2, 4] was 3. The “number of rabbits with acne histological grading 1+” value [2, 5] was 2, the “number of rabbits with acne histological grading 3+” value [2, 4] was 0 and the “number of rabbits with acne histological grading 3+” value [2, 5] was 0. For the same compound, the “skin wound healing and scar formation” value [3] was “significantly promote skin wound healing and reduce scar formation”.
